This is an account of results in PMC5485989, “Role of Free Radicals and Biotransformation in Trichloronitrobenzene-Induced Nephrotoxicity In Vitro” (International Journal of Molecular Sciences, 2017).

Data set [1] has as its system isolated renal cortical cells (IRCC). As to the kind of experiment: Time and concentration cytotoxicity study, LDH release in IRCC. It counts as cell-based, male Fischer 344 rats. To be noted: for Cytotoxicity (LDH release), time and concentration response: 0.5 or 1.0 mM, 15-120 min, significant difference from DMSO control, p < 0.05. How it is done:
To determine the comparative nephrotoxic potential of the four TCNBs in IRCC, a time and concentration response study was performed starting at 15 min and 0.5 or 1.0 mM and adjusting the times tested based on the results (Figure 2).

Data set [2] shares this test system. As to the kind of experiment: 4-HNE adduction in IRCC (Western blot). It counts as cell-based, male Fischer 344 rats. To be noted: 0.5 or 1.0 mM, 15 or 30 min. How it is done: (§1) To determine if oxidative stress plays a role in 3,4,5-TCNB nephrotoxicity, experiments were conducted to determine the temporal aspects of free radical damage as evidenced by protein carbonylation (OxyBlot) and 4-hydroxynonenal (4-HNE) adduction.
(§2) Protein carbonylation was detected using OxyBlot™ Protein Oxidation (Millipore S7150; Temecula, CA, USA). Samples were prepared according to the manufacturer’s protocol and an equal amount of protein (25 µg) and volume were loaded in each lane of a 12.5% polyacrylamide gel and transferred to a nitrocellulose membrane (Whatman; 10-439-196; Dassel, Germany). The transfer was confirmed using a Memcode reversible protein stain kit (Pierce Biotechnology, Fisher Scientific) and the protein was used to normalize each lane. Membranes were incubated overnight at 4 °C with primary antibody (1:150) for OxyBlot. Goat anti-rabbit horse radish peroxidase (HRP, 1:300) was the secondary antibody. Protein with 4-hydroxynonenal (4-HNE) reduced Micahel adducts were prepared as described previously with the exception that 45 µg of protein was used for the gel. The membranes were developed using Amersham^TM ECLTM Western Blotting Reagents (GE Healthcare; Buckinghamshire, UK) and the results were viewed and analyzed using a Bio-Rad Chemidoc system with BioRad Chemidoc densitometry software (version 4.0.1, Catalog No. 170-9690, BioRad, Hercules, CA, USA).

The test system is the same in data set [3]. As to the kind of experiment: Protein carbonylation in IRCC (OxyBlot). It counts as cell-based, male Fischer 344 rats. How it is done:
as §1, §2

The test system of a further data set is renal cortical slices. Particulars: 120 min incubations; cited from earlier work.
A further data set deals with kidney. Also noted: method as in PMID 2576285. To be noted: 1.0 mmol/kg, intraperitoneally, cited from earlier work.
In data set [4] the test system is isolated renal cortical cells (IRCC). As to the kind of experiment: Effect of antioxidant or biotransformation inhibitor pretreatment on TCNB cytotoxicity, LDH release in IRCC. To be noted: 1.0 mM 2,3,4-TCNB alone, 60 min; one value per pretreatment experiment; mean ± S.E., n = 4. How it is done:
Untreated rats were anesthetized with pentobarbital (75 mg/kg, i.p.) and isolated renal cortical cells (IRCC) were obtained by using the collagenase perfusion method. Initial cell viability was determined by measuring trypan blue (2% w/v) exclusion and lactate dehydrogenase (LDH) release. […] IRCC were then exposed to various concentrations of a TCNB (0, 0.5, or 1.0 mM) for 15, 30, 60, 90, or 120 min. Following the incubation period, flasks were removed and placed on ice. Samples (0.5 mL) were taken for LDH release assays. Briefly, the samples were centrifuged (3000× g, 3 min), the was supernatant decanted and saved, and the pellet was disrupted with 1 mL of 10% Triton X-100 solution to release cellular LDH activity. LDH activity was then determined in each fraction (supernatant and pellet) as previously described using a kinetic assay based on the amount of NADH produced from NAD [57]. The LDH released was expressed as % of total (supernatant plus pellet).
Concentrations used in these experiments were 0.5 mM (3,4,5-TCNB) or 1.0 mM (2,3,4-, 2,4,5- and 2,4,6-TCNB). Incubation times with a TCNB added were 30 min (3,4,5-TCNB), 60 min (2,3,4-TCNB), or 90 min (2,4,5- and 2,4,6-TCNB). The pretreatment times and concentrations for all of the pretreatments are shown below in Table 5.
A general note: LDH in the medium is a marker of cell lysis.

Several values for one entry are separate records, joined by “and”; a condition that tells them apart may be missing. Identical values can stand only once. Marks after values point to notes of the source that are not given here.

As for `O=[N+]([O-])c1cc(Cl)c(Cl)c(Cl)c1` [3,4,5-TCNB], in data set [1], the “Cytotoxicity (LDH release), time and concentration response” value was “induced cytotoxicity at 30 and 60 min (0.5 and 1.0 mM) but not at 15 min”. Further, in data set [1] (as early as 30 min), the “Concentration at which cytotoxicity was evident” value is 500 µM. The “Order of decreasing nephrotoxic potential” value in data set [1] (based on time of onset, lowest concentration required and magnitude of LDH release) is “most potent nephrotoxicant”. For the same compound, the 4-HNE levels result in data set [2] was “not increased”. Moreover, the Protein carbonylation entry is listed as “slightly decreased” in data set [3] (1.0 mM, 30 min, p = 0.017) and “not increased” in data set [3] (0.5 or 1.0 mM, 15 or 30 min). The “Lowest concentration inducing in vitro nephrotoxicity (increased LDH release and decreased pyruvate-stimulated gluconeogenesis)” value in the data set with renal cortical slices is listed as 0.5 mM.
Turning to `O=[N+]([O-])c1ccc(Cl)cc1` [4-chloronitrobenzene], in the data set with kidney (48 h after treatment), the Renal effects result is “induced diuresis, increased N-acetyl-β-D-glucosaminidase excretion, and caused swelling of the kidney”. Also, the “Urinary creatinine and blood urea nitrogen (BUN) concentrations” value in the data set with kidney is listed as “not altered”.
As to `O=[N+]([O-])c1ccc(Cl)c(Cl)c1Cl` [2,3,4-TCNB, 2,3,4-trichloronitrobenzene], the “Cytotoxicity (LDH release), time and concentration response” value in data set [1] was “exhibited cytotoxicity starting after 15 min (1.0 mM) and 60 min exposure (0.5 and 1.0 mM), but no cytotoxicity was observed at 15 min”. The “% of lactate dehydrogenase release, 2,3,4-TCNB” value in data set [4] is 28 ± 2 ^c % and 21 ± 1 ^c % and 22 ± 1 ^c % and 18 ± 1 ^c % and 20 ± 2 ^c % and 23 ± 2 ^c % and 20 ± 1 ^c % and 19 ± 1 ^c %. In addition, the “Lowest concentration inducing in vitro nephrotoxicity (increased LDH release and decreased pyruvate-stimulated gluconeogenesis)” value with renal cortical slices is reported as 0.5 mM.
